For orientation: Ki means a measure of affinity in units of concentration, obtained from inhibition or displacement.

Where two headings read alike, the source gives them in different places.

In US8138189B2, “Substituted benzene compounds as modulators of the glucocorticoid receptor” (Hoffman-La Roche Inc., priority 2009, dated 2012) one finds Ki data, which are given here for 19 compounds.

The experiment addresses T1, full length human recombinant glucocorticoid receptor (Homo sapiens, UniProt P04150).
T1 construct: partially purified full length human recombinant glucocorticoid receptor; purchased Panvera/Invitrogen PV4302
T1 sequence (P04150 1-777): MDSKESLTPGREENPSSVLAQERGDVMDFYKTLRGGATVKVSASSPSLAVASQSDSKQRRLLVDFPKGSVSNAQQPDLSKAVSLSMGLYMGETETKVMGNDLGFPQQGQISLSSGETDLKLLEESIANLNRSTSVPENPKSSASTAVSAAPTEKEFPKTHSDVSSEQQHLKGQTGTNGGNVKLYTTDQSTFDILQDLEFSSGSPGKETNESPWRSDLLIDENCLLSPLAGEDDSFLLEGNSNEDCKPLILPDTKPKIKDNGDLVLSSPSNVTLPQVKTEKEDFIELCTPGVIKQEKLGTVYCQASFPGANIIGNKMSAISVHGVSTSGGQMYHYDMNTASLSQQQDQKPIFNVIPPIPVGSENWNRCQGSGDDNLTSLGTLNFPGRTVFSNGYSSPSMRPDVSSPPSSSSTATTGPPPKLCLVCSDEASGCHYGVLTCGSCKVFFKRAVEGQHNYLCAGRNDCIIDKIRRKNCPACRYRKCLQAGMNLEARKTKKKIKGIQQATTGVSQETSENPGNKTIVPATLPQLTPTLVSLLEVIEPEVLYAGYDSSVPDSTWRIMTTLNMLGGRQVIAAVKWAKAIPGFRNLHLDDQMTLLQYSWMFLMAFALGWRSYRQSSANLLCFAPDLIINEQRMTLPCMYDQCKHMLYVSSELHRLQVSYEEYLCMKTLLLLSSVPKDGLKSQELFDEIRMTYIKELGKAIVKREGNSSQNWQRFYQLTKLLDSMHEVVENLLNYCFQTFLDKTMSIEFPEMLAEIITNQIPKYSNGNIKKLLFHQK
Put plainly: Glucocorticoid Receptor Binding Assay (fluorescence polarization competitor assay, Fluormone GS Far Red tracer). As to the method:
Glucocorticoid Receptor Binding Assay
The ability of the substances to bind to the glucocorticoid receptor was determined with the help of a commercial Glucocorticoid Receptor Competitor Assay far red kit provided by Panvera/Invitrogen (PV4302). This kit is used as provided by the supplier. It contains some partially purified full length human recombinant glucocorticoid receptor, a coactivator related GR stabilizing peptide, a tight-binding fluorescent GR ligand Fluormone™ GS Far Red as labeled tracer and a screening buffer. All reagents are prepared and the assay is run according to the recommendations of the kit manufacturer.
Briefly, the GR stabilizing peptide and the human recombinant glucocorticoid receptor are both diluted with the screening buffer (pH 7.4) and are gently mixed (no vortexing) just before the assay and kept on ice until use. The fluorescent-labeled ligand is also diluted with the screening buffer just before the assay and kept on ice until use. The substances to test are pre-diluted in pure DMSO then some water is added to get an intermediate 4.2% DMSO stock solution. Ten microliter of the intermediate stock solution is gently mixed with 5 μl of diluted fluorescent-labeled ligand and 5 μl of diluted human recombinant glucocorticoid receptor in a 384-well plate (low volume, ultraclear, glass plate from Greiner ref 788896). The plate is centrifuged, sealed and incubated for 3 hours at 22° C. in the dark. The polarized fluorescence is measured with a Zeiss-HTS reader or any equivalent equipment (610-660 nm).
All compounds were tested to determine IC50 in a serial dilution experiment. The concentration at which 50% inhibition of the fluorescent GR ligand Fluormone™ GS Far Red is obtained (the IC50) is determined after fitting with a sigmoidal dose-response model of a plot of the logarithm of the concentration versus percent inhibition measured for the different concentrations. Ki's were calculated from IC50 based on Cheng-Prusoff equation (Cheng, Y, Prusoff, W H (1973) Biochem Pharmacol 22, 3099-3108): Ki=IC50/[1+D/Kd] wherein D is the concentration of the fluorescent ligand and Kd is the binding constant for the fluorescent ligand binding to the receptor under the conditions used in the competition experiment.
A general note: Fluorescence polarisation rises when a labelled molecule tumbles more slowly, as on binding a larger partner.

As for `Cc1cc([C@@](O)([C@@H](C)c2ccc(Oc3ccc(C(=O)O)cc3F)cc2Cl)C(F)(F)F)cn(C)c1=O` (relative stereo) [Example 216, 4-{3-Chloro-4-[2-(1,5-dimethyl-6-oxo-1,6-dihydro-pyridin-3-yl)-3,3,3-trifluoro-2-hydroxy-1-methyl-propyl]-phenoxy}-3-fluoro-benzoic acid], the Ki was 0.0002 µM. On the same count and under the same terms, the value for `COC(=O)c1ccc(Oc2ccc([C@H](C)[C@](O)(c3cc(C)c(=O)n(C)c3)C(F)(F)F)c(Cl)c2)nc1` (relative stereo) [Example 217, 6-{3-Chloro-4-[2-(1,5-dimethyl-6-oxo-1,6-dihydro-pyridin-3-yl)-3,3,3-trifluoro-2-hydroxy-1-methyl-propyl]-phenoxy}-nicotinic acid methyl ester] was 0.0029 µM.

On to `C[C@H](c1ccc(-c2ccc(F)c(C(=O)O)c2)cc1Cl)[C@@](O)(c1cnc2ccccc2c1)C(F)(F)F` (relative stereo) [Example 226, 3′-Chloro-4-fluoro-4′-(3,3,3-trifluoro-2-hydroxy-1-methyl-2-quinolin-3-yl-propyl)-biphenyl-3-carboxylic acid], for which the Ki is 0.0244 µM.

For `C[C@H](c1ccc(Oc2ncc(C(=O)O)cc2Cl)cc1Cl)[C@@](O)(c1ccc2nccnc2c1)C(F)(F)F` (relative stereo) [Example 227, 5-Chloro-6-[3-chloro-4-(3,3,3-trifluoro-2-hydroxy-1-methyl-2-quinoxalin-6-yl-propyl)-phenoxy]-nicotinic acid], the Ki was 0.0143 µM. The same measure, in the same setting: the value for `Cc1cc([C@](O)([C@H](C)c2ccc(-c3ccc(C(=O)O)c(F)c3)cc2Cl)C(F)(F)F)sc1C#N` (relative stereo) [Example 229, 3′-Chloro-4′-[2-(5-cyano-4-methyl-thiophen-2-yl)-3,3,3-trifluoro-2-hydroxy-1-methyl-propyl]-3-fluoro-biphenyl-4-carboxylic acid] was 0.0112 µM; that for `Cc1cc([C@](O)([C@H](C)c2ccc(Oc3ncc(C(=O)O)cc3Cl)cc2Cl)C(F)(F)F)cnc1C#N` (relative stereo) [Example 231, 5-Chloro-6-{3-chloro-4-[2-(6-cyano-5-methyl-pyridin-3-yl)-3,3,3-trifluoro-2-hydroxy-1-methyl-propyl]-phenoxy}-nicotinic acid] was 0.0017 µM; that for `COC(=O)c1cnc(Oc2ccc([C@@H](C)[C@@](O)(c3ccc(=O)n(C)c3)C(F)(F)F)c(Cl)c2Cl)cn1` (relative stereo) [Example 237, 5-{2,3-Dichloro-4-[3,3,3-trifluoro-2-hydroxy-1-methyl-2-(1-methyl-6-oxo-1,6-dihydro-pyridin-3-yl)-propyl]-phenoxy}-pyrazine-2-carboxylic acid methyl ester] was 0.0243 µM. Still for that read-out and setting: the value for `CCOC(=O)C(C)(C)Oc1ccc([C@H](C)[C@](O)(c2ccc(=O)n(C)c2)C(F)(F)F)c(Cl)c1Cl` (relative stereo) [Example 239, 2-{2,3-Dichloro-4-[3,3,3-trifluoro-2-hydroxy-1-methyl-2-(1-methyl-6-oxo-1,6-dihydro-pyridin-3-yl)-propyl]-phenoxy}-2-methyl-propionic acid ethyl ester] was 0.0145 µM. Consider `Cc1cc(C(=O)O)cnc1Oc1ccc([C@H](C)[C@](O)(c2cc(C)c(=O)n(C)c2)C(F)(F)F)c(Cl)c1` (relative stereo) [Example 252, 6-{3-Chloro-4-[2-(1,5-dimethyl-6-oxo-1,6-dihydro-pyridin-3-yl)-3,3,3-trifluoro-2-hydroxy-1-methyl-propyl]-phenoxy}-5-methyl-nicotinic acid], for which the Ki turned out to be 0.0011 µM. For `COC(=O)c1cnc(Oc2ccc([C@H](C)[C@](O)(c3cc(C)c(=O)n(C)c3)C(F)(F)F)c(Cl)c2)nc1` (relative stereo) [Example 253, 2-{3-Chloro-4-[2-(1,5-dimethyl-6-oxo-1,6-dihydro-pyridin-3-yl)-3,3,3-trifluoro-2-hydroxy-1-methyl-propyl]-phenoxy}-pyrimidine-5-carboxylic acid methyl ester], the Ki is 0.0015 µM. Still for that read-out and setting: the value for `Cc1cc([C@@](O)([C@@H](C)c2ccc(Oc3ccc(C(=O)O)cc3C(F)(F)F)cc2Cl)C(F)(F)F)cn(C)c1=O` (single isomer, unassigned) [Example 219, 4-{3-Chloro-4-[2-(1,5-dimethyl-6-oxo-1,6-dihydro-pyridin-3-yl)-3,3,3-trifluoro-2-hydroxy-1-methyl-propyl]-phenoxy}-3-trifluoromethyl-benzoic acid] was 0.0017 µM. As for `Cc1cc([C@@](O)([C@@H](C)c2ccc(Oc3ccc(C(=O)O)cc3C(F)(F)F)cc2Cl)C(F)(F)F)cn(C)c1=O` (single isomer, unassigned) [Example 241, 4-{3-Chloro-4-[2-(1,5-dimethyl-6-oxo-1,6-dihydro-pyridin-3-yl)-3,3,3-trifluoro-2-hydroxy-1-methyl-propyl]-phenoxy}-3-trifluoromethyl-benzoic acid], the inhibition constant Ki (Ki calculated from IC50 by Cheng-Prusoff, 3 hours at 22° C., pH 7.4) is 0.0017 µM. As to `CCOC(=O)c1ccc(COc2ccc([C@@H](C)[C@@](O)(c3cnc(C)cn3)C(F)(F)F)c(Cl)c2)cc1` (stereo in doubt) [Example 7, 4-{3-Chloro-4-[(1R,2R)-3,3,3-trifluoro-2-hydroxy-1-methyl-2-(5-methyl-pyrazin-2-yl)-propyl]-phenoxymethyl}-benzoic acid ethyl ester], the inhibition constant (Ki) was determined as 0.0381 µM. Same read-out and setting: the same measure for `Cc1cnc([C@](O)([C@H](C)c2ccc(OCc3ccc(CC(=O)O)cc3)cc2Cl)C(F)(F)F)cn1` (stereo in doubt) [Example 12, (4-{3-Chloro-4-[3,3,3-trifluoro-2-hydroxy-1-methyl-2-(5-methyl-pyrazin-2-yl)-propyl]-phenoxymethyl}-phenyl)-acetic acid]: 0.0335 µM. In the case of `COC(=O)c1ccc(COc2ccc([C@@H](C)[C@@](O)(c3cnc(C)cn3)C(F)(F)F)c(Cl)c2)c(Cl)c1` (stereo in doubt) [Example 13, 3-Chloro-4-{3-chloro-4-[3,3,3-trifluoro-2-hydroxy-1-methyl-2-(5-methyl-pyrazin-2-yl)-propyl]-phenoxymethyl}-benzoic acid methyl ester], the Ki was 0.0118 µM. On to `Cc1cnc([C@](O)([C@H](C)c2ccc(OCc3ccc(C(=O)O)cc3Cl)cc2Cl)C(F)(F)F)cn1` (stereo in doubt) [Example 14, 3-Chloro-4-{3-chloro-4-[3,3,3-trifluoro-2-hydroxy-1-methyl-2-(5-methyl-pyrazin-2-yl)-propyl]-phenoxymethyl}-benzoic acid], for which the Ki turned out to be 0.0028 µM. As to `COc1cc(C(=O)O)ccc1COc1ccc([C@@H](C)[C@@](O)(c2cnc(C)cn2)C(F)(F)F)c(Cl)c1` (stereo in doubt) [Example 16, 4-{3-Chloro-4-[3,3,3-trifluoro-2-hydroxy-1-methyl-2-(5-methyl-pyrazin-2-yl)-propyl]-phenoxymethyl}-3-methoxy-benzoic acid], the Ki was 0.0723 µM. Still for that read-out and setting: the same measure for `COC(=O)C(C)c1ccc(COc2ccc([C@@H](C)[C@@](O)(c3cnc(C)cn3)C(F)(F)F)c(Cl)c2)cc1` (stereo in doubt) [Example 17, 2-(4-{3-Chloro-4-[3,3,3-trifluoro-2-hydroxy-1-methyl-2-(5-methyl-pyrazin-2-yl)-propyl]-phenoxymethyl}-phenyl)-propionic acid methyl ester]: 0.0339 µM. Same read-out and setting: the value for `Cc1cnc([C@](O)([C@H](C)c2ccc(OCc3ccc(C(C)C(=O)O)cc3)cc2Cl)C(F)(F)F)cn1` (stereo in doubt) [Example 18, 2-(4-{3-Chloro-4-[3,3,3-trifluoro-2-hydroxy-1-methyl-2-(5-methyl-pyrazin-2-yl)-propyl]-phenoxymethyl}-phenyl)-propionic acid] was 0.11 µM.
